According to article PMC13210772, “Dual FLT3/MAPK14 Proteolysis-Targeting Chimera (PROTAC) Induces Potent Acute Myeloid Leukemia Cell Death” (Pharmaceuticals, 2026):
Values after ≈ are worked out from the molar mass of the structure shown.

Assays:
MAPK11 = MAPK11 (Homo sapiens, UniProt Q15759); assay: NanoBRET CELLinib128; settings: read-out: Tracer bound
GSK3B = GSK3B (Homo sapiens, UniProt P49841); assay: NanoBRET CELLinib128; settings: read-out: Tracer bound
IGF1R = IGF1R (Homo sapiens, UniProt P08069); assay: NanoBRET CELLinib128; settings: read-out: Tracer bound
Sequence of IGF1R (P08069 31-1367): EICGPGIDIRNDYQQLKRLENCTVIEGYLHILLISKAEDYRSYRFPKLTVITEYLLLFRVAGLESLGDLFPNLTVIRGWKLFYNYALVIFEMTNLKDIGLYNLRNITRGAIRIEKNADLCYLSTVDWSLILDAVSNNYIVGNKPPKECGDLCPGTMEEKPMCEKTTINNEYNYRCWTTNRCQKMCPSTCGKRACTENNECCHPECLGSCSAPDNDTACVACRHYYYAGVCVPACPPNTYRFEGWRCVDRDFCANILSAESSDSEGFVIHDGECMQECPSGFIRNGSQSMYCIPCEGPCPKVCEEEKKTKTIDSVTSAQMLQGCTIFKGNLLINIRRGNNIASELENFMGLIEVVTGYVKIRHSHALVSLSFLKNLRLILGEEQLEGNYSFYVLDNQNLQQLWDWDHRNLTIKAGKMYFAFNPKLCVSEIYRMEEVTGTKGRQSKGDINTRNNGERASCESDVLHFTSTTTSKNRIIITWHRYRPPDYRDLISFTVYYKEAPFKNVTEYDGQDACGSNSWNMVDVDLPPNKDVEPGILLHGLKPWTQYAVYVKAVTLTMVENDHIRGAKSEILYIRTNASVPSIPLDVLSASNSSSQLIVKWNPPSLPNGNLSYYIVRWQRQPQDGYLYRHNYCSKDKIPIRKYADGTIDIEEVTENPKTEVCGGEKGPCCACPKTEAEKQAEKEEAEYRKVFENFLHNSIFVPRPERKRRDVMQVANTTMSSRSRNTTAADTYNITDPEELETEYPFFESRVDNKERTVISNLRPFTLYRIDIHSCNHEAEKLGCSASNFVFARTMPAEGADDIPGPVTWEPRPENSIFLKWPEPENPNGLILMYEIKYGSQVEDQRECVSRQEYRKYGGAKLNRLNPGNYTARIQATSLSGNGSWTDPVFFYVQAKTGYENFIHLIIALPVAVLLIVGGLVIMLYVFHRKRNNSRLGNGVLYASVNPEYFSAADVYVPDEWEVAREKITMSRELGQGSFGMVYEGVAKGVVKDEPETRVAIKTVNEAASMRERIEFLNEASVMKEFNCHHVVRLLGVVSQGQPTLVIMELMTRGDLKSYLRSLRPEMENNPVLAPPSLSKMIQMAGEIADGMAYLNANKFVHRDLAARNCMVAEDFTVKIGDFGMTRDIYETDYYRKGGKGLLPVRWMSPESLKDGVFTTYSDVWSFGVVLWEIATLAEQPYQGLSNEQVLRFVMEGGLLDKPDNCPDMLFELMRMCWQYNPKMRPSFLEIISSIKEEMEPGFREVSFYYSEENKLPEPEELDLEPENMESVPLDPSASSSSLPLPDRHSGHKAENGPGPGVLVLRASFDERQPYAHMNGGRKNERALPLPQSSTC

EPHB3 = target: T1, EPHB3 (Homo sapiens, UniProt P54753); assay: NanoBRET CELLinib128; assay type: binding; settings: 100% no effect, 0% complete tracer displacement, read-out: Tracer bound
T1 construct: Full-length kinase ORF (Promega, Madison, WI, USA) cloned in frame with a NanoLuc-vector was transfected into HEK293T cells; host or cells: HEK293T
T1 sequence (P54753 34-998): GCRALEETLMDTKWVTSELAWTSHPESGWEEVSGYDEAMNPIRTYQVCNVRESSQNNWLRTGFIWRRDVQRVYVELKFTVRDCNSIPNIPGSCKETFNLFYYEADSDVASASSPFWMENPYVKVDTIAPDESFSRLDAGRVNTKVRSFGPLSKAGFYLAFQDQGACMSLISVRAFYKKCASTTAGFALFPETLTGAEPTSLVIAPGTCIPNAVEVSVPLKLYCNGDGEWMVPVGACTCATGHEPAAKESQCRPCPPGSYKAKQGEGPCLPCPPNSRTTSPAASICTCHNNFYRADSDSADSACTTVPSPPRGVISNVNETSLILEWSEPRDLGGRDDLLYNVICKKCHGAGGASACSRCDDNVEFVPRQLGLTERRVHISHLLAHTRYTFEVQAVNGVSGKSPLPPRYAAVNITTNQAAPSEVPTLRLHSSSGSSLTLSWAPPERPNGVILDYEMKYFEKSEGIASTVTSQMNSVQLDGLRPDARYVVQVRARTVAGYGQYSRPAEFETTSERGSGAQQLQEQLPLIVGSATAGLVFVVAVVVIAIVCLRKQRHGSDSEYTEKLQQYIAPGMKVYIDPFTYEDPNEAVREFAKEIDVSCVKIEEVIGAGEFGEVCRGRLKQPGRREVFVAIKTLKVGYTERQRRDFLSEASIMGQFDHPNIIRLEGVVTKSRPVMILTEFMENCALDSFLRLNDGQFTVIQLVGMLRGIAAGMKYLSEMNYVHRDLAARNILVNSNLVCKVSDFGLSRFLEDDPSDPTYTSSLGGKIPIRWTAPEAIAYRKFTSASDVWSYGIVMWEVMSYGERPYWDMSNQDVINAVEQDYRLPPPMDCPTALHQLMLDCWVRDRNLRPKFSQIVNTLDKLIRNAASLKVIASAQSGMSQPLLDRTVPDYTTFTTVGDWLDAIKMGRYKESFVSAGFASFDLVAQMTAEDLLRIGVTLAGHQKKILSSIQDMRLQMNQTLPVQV

Nephelometric solubility = assay type: physicochemical; settings: aqueous buffer, kinetic from dmso stock; PBS buffer, nephelometry
Experimental: In addition to the degradation and determination of the effects on AML cancer cells, we also determined some physicochemical parameters to assess whether the compounds are suitable for further in vivo studies. Nephelometric measurements were performed to determine the water solubility of some compounds. […] The nephelometric technique has been previously described as a high-throughput method for the solubility determination of compounds in the solvent of interest. This technique measures the intensity of scattered light when visible light passes through a suspension of the tested compound. Relative turbidity is an indication of the insolubility of compounds.
First, equidistant and logarithmic pre-dilutions were prepared in a 96-well plate with round bottoms, using 25 mM stock solutions of compounds MA68 and MA191 in DMSO. Then, 5 μL of each pre-dilution was added to 245 μL of PBS buffer in a 96-well plate with straight bottoms. Quadruplets were prepared for the blank (DMSO + PBS), and final concentrations (one plate per compound) were tested. The final concentrations measured started from 500 μM to 0.78125 μM. A NEPHELOstarplus (BMG LABTECH GmbH, Ortenberg, Germany) was used to measure the solubility, and omega-data analysis software (version 3.42 R5) was used to analyze the results.

Plasma stability = assay type: in vitro ADME; settings: for plasma stability: human plasma, 6 h; for remaining at 0 h, 10 µM / remaining at 10 min, 10 µM / remaining at 0.5 h, 10 µM / remaining at 1 h, 10 µM / remaining at 2 h, 10 µM / remaining at 6 h, 10 µM: pooled human plasma, 37 °C; for remaining at 0 h, 10 µM: 0 min, read-out: 0 min—Compound Remaining %; for remaining at 10 min, 10 µM: read-out: 10 min—Compound Remaining %; for remaining at 0.5 h, 10 µM: 30 min, read-out: 30 min—Compound Remaining %; for remaining at 1 h, 10 µM: 60 min, read-out: 60 min—Compound Remaining %; for remaining at 2 h, 10 µM: 120 min, read-out: 120 min—Compound Remaining %; for remaining at 6 h, 10 µM: 360 min, read-out: 360 min—Compound Remaining %
Experimental: Another aspect we tested for selected PROTACs, and the reference inhibitor is the stability in human plasma. PROTACs MA190 and MA191 and their parent inhibitor MA68 (10 μM, final DMSO concentration 1%) were incubated with 100 μL pooled human plasma at 37 °C. The remaining amount of the incubated compound was tested for 6 h using a HPLC method. […] The further detailed biological characterization of MA191 and the successful in vivo testing can be found in a study submitted in parallel.
To determine plasma stability, 10 μM of the given compound was incubated with 100 μL human pooled plasma for 5, 10, 30, 60, 120 and 360 min at 37 °C. The reactions were stopped by adding 300 μL of acetonitrile with subsequent plasma proteins sedimentation. The samples were subjected to ultra-centrifugation (5 min, 10,000 RPM/g) using modified PES 30K low protein binding centrifugal filter. The filtrate was then analyzed using HPLC to determine the available concentration of the compounds and also to determine and quantify potential degradation products. As HPLC system a LiChrosorb® RP-18 (5 μm) 100–4.6 column from the manufacturer Merck, two LC-10AD pumps, a SPD-M10A VP PDA detector, and a SIL HT auto-sampler were used (all from the manufacturer Shimadzu, Kyoto, Japan). As mobile phase a gradient with […] composed of methanol/water/trifluoroacetic acid at a flow rate of 1 mL/min. UV absorbance was measured at 254 nm was used.

FLT3-ITD = target: T2, FLT3-ITD (Homo sapiens, UniProt P36888, INS600HVDFREYEYD); assay: FLT3-ITD degradation, immunoblot in MV4-11 cells; settings: for FLT3-ITD degradation / reduction/elimination of FLT3-ITD / FLT3-ITD (130 kDa) level relative to untreated cells: MV4-11 cells; for FLT3-ITD degradation / FLT3-ITD (130 kDa) level relative to untreated cells: 50 nM; for FLT3-ITD degradation: 24 h; for inhibition at 0.05 µM: MV4-11, 24 h, read-out: % FLT3-ITD Degradation at 50 nM
T2 sequence (P36888 with tags, fused parts or gaps INS600HVDFREYEYD): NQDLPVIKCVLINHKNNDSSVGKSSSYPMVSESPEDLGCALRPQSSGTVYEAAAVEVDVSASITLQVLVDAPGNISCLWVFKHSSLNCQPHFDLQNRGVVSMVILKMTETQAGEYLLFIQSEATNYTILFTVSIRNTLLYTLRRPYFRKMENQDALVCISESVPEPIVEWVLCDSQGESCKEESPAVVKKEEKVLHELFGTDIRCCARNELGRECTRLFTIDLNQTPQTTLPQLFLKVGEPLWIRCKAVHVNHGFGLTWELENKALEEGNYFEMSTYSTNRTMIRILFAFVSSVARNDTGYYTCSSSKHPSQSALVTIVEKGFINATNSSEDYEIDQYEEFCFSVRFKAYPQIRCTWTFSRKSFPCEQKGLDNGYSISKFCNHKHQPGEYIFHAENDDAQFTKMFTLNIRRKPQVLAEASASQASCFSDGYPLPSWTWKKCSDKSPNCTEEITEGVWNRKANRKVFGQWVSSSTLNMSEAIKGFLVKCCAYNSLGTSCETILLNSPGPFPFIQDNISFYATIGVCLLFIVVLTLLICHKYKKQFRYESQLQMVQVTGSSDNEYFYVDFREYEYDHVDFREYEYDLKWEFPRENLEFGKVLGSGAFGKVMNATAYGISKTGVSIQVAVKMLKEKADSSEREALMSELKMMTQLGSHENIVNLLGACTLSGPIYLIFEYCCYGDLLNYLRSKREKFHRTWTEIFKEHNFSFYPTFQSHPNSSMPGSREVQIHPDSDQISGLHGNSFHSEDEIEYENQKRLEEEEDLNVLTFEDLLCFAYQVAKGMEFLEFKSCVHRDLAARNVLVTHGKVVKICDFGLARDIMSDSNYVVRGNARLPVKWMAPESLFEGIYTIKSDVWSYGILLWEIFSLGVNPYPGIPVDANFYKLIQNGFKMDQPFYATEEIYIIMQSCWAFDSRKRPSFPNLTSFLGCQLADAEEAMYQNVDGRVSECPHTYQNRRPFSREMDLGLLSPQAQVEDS

RON = RON (Homo sapiens, UniProt Q04912); assay: NanoBRET CELLinib128; settings: read-out: Tracer bound
Sequence of RON (Q04912 25-1400): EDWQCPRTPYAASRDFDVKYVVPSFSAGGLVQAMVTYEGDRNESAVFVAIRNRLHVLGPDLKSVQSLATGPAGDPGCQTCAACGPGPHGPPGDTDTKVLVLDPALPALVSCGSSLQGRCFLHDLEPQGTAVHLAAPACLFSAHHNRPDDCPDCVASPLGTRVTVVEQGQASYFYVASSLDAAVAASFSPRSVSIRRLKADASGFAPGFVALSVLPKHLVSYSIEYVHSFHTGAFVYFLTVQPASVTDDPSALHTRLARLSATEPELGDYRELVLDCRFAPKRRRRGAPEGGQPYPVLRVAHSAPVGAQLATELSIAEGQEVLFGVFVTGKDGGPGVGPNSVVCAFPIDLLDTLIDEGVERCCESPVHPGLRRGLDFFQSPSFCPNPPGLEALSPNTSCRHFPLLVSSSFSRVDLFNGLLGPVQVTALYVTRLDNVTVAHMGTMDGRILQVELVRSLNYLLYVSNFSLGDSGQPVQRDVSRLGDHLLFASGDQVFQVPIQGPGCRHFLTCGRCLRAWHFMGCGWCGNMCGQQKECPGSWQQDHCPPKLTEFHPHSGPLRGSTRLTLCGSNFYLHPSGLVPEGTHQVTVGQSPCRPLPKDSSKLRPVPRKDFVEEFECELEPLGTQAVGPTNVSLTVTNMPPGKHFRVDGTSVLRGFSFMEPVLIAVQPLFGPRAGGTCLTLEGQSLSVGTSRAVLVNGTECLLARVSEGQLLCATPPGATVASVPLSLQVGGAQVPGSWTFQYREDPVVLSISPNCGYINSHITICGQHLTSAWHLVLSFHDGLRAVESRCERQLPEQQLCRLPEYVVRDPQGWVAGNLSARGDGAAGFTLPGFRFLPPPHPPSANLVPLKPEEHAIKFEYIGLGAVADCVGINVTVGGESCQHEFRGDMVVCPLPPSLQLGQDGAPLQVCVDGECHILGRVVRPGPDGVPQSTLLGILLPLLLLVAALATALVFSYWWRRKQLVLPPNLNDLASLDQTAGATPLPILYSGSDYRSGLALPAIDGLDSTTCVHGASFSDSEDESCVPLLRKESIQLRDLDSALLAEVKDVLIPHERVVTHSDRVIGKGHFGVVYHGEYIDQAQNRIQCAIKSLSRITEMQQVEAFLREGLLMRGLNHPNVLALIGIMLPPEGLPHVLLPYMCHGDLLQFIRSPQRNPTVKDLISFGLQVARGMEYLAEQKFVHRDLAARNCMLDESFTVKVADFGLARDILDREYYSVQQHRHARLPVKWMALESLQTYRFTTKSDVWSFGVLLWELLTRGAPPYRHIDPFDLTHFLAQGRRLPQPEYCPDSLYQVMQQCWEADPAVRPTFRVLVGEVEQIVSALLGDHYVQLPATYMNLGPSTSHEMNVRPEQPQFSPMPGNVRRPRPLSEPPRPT

FYN = target: T3, FYN (Homo sapiens, UniProt P06241); assay: NanoBRET CELLinib128; assay type: binding; settings: 100% no effect, 0% complete tracer displacement, read-out: Tracer bound
T3 construct: Full-length kinase ORF (Promega, Madison, WI, USA) cloned in frame with a NanoLuc-vector was transfected into HEK293T cells; host or cells: HEK293T
T3 sequence (P06241 whole entry): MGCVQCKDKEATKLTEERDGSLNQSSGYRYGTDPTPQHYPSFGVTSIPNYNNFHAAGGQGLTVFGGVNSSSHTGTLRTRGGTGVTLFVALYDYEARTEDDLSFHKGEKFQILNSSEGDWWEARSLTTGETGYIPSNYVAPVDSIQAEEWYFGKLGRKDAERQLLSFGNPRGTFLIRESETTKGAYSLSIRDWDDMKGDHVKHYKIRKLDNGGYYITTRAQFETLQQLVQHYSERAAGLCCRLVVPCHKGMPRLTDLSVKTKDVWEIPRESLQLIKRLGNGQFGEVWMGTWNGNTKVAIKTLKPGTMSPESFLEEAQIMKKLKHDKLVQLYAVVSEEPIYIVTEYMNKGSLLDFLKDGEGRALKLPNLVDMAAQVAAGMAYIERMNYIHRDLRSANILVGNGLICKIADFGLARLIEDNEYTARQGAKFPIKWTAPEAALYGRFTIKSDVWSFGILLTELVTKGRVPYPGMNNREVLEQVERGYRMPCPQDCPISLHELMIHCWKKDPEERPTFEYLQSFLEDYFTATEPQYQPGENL

in vitro = settings: human, HEK293 cells
[1] = tested on: 128 representative protein kinases; assay: NanoBRET CELLinib128 kinase selectivity panel, summary; settings: 1 μM

Sequence of MAPK11 (Q15759 whole entry): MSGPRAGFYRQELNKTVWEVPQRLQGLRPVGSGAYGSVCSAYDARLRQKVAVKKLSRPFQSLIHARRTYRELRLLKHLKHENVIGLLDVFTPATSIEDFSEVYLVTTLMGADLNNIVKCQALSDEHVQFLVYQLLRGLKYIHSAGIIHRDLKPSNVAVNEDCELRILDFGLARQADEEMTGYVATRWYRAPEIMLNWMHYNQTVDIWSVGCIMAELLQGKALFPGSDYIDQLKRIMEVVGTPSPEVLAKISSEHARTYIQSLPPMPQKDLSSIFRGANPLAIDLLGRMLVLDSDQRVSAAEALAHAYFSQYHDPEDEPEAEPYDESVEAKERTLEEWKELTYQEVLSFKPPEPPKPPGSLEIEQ
Sequence of GSK3B (P49841 whole entry): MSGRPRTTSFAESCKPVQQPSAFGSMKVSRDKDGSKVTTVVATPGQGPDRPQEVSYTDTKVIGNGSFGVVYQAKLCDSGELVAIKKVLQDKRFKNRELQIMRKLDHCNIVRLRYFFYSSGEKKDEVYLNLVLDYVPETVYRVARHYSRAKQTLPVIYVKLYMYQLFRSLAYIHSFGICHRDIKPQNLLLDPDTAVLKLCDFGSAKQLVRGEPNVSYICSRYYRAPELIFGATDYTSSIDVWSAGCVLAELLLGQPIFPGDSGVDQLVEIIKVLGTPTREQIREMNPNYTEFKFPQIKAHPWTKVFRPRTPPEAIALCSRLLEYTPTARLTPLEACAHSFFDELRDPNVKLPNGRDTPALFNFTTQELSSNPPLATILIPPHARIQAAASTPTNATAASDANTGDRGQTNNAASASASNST

SMILES	remaining activity at 1 µM (MAPK11) [%]	remaining activity at 1 µM (GSK3B) [%]	remaining activity at 1 µM (IGF1R) [%]	remaining activity at 1 µM (EPHB3) [%]	solubility (Nephelometric solubility) [µM]	plasma stability (Plasma stability)	remaining at 0 h, 10 µM (Plasma stability) [%]	remaining at 10 min, 10 µM (Plasma stability) [%]	remaining at 0.5 h, 10 µM (Plasma stability) [%]	remaining at 1 h, 10 µM (Plasma stability) [%]	remaining at 2 h, 10 µM (Plasma stability) [%]	remaining at 6 h, 10 µM (Plasma stability) [%]	FLT3-ITD degradation (FLT3-ITD)	remaining activity at 1 µM (RON) [%]	remaining activity at 1 µM (FYN) [%]	viability at 24 h, 50 µM (in vitro) [%]	inhibition at 0.05 µM (FLT3-ITD) [%]	reduction/elimination of FLT3-ITD (FLT3-ITD) [%]	FLT3-ITD (130 kDa) level relative to untreated cells (FLT3-ITD) [%]	further results
CNC(=O)c1cc(Oc2ccc(NC(=O)Nc3cc(C(C)(C)C)on3)cc2)ccn1 [MA68, reference compound]	24	120	111	44.8	45.8 (≈ 18.8 µg/mL)	high plasma stability	100	92.9 ± 0.2	94.2 ± 1.2	91.9 ± 3.1	93.6 ± 3.2	88.9 ± 3.2	but not their underlying kinase inhibitor MA68, eliminate FLT3-ITD	100	114	11.5 ± 2.2	–	–	–	Target Count < 50 % tracer bound (kinases with >50% tracer displacement) ([1]; of 128 kinases): 25
Cc1ncsc1-c1ccc([C@H](C)NC(=O)[C@@H]2C[C@@H](O)CN2C(=O)[C@@H](NC(=O)[C@H]2CC[C@H](C(=O)N3CCC(CCNC(=O)c4cc(Oc5ccc(NC(=O)Nc6cc(C(C)(C)C)on6)cc5)ccn4)CC3)CC2)C(C)(C)C)cc1 [MA190, 4-(4-(3-(5-(tert-Butyl)isoxazol-3-yl)ureido)phenoxy)-N-(2-(1-(trans-4-(((S)-1-((2S,4R)-4-hydroxy-2-(((S)-1-(4-(4-methylthiazol-5-yl)phenyl)ethyl)carbamoyl)pyrrolidin-1-yl)-3,3-dimethyl-1-oxobutan-2-yl)carbamoyl)cyclohexanecarbonyl)piperidin-4-yl)ethyl)picolinamide]	–	–	–	–	–	high plasma stability	100	94.1 ± 4.7	89.5 ± 1.8	88.3 ± 0.2	86 ± 2	86.2 ± 2.4	eliminate FLT3-ITD	–	–	99.1 ± 3.1	95	> 95	5	–
Cc1ncsc1-c1ccc([C@H](C)NC(=O)[C@@H]2C[C@@H](O)CN2C(=O)[C@@H](NC(=O)[C@H]2CC[C@H](C(=O)N3CCN(CCNC(=O)c4cc(Oc5ccc(NC(=O)Nc6cc(C(C)(C)C)on6)cc5)ccn4)CC3)CC2)C(C)(C)C)cc1 [MA191, 4-(4-(3-(5-(tert-Butyl)isoxazol-3-yl)ureido)phenoxy)-N-(2-(4-(trans-4-(((S)-1-((2S,4R)-4-hydroxy-2-(((S)-1-(4-(4-methylthiazol-5-yl)phenyl)ethyl)carbamoyl)pyrrolidin-1-yl)-3,3-dimethyl-1-oxobutan-2-yl)carbamoyl)cyclohexanecarbonyl)piperazin-1-yl)ethyl)picolinamide]	96.2	120	107	120	47.7 (≈ 51.9 µg/mL)	high plasma stability	100	95.9 ± 9.4	93.3 ± 4.2	92.6 ± 5.7	94.9 ± 1.8	93.3 ± 0.7	eliminate FLT3-ITD	98.5	120	86.9 ± 5.8	95	> 95	5	kinases with no detectable binding (<10%) ([1]; share of the 128 kinases): 93.7%
Cc1ncsc1-c1ccc([C@H](C)NC(=O)[C@@H]2C[C@@H](O)CN2C(=O)[C@@H](NC(=O)CCOCCOCCOCCNC(=O)c2cc(Oc3ccc(NC(=O)Nc4cc(C(C)(C)C)on4)cc3)ccn2)C(C)(C)C)cc1 [MA49, reference compound]	–	–	–	–	–	–	100	94.9 ± 2.5	96.1 ± 1.7	95.2 ± 2.8	93.2 ± 6.7	95.4 ± 4.3	–	–	–	2.9 ± 0.3	80	80	–	–
